# Results published in patent US8609608B2, “Antimicrobial peptides” (C3 Jian, Inc., priority 2007, dated 2013).
# Read-outs that look alike come from different tables or passages of the source. Where no end group is shown, it is not given here.
# Tests used:
# [1] = system: clinical isolates of S. mutans; type: cell-based, Streptococcus mutans
# Procedure: S. mutans clinical isolates UA140 (32), UA159 (1), T8 (33), ATCC 25175, GS5 (Kuramitsu and Ingersoll (1977) Infect Immun., 17: 330-337), and all gram-positive strains listed below (see Table 9) were grown under anaerobic conditions in brain heart infusion or Todd-Hewitt (TH) broth (Difco) overnight at 37° C. prior to use (Eckert et al. (2006) Antimicrob. Agents Chemother. 50: 3651-3657). Veillonella atypica PK1910 was grown in Veillonella medium (Egland et al. (2004) Proc. Natl. Acad. Sci., USA, 101: 16917-16922). All strains were grown in an anaerobic atmosphere of 80% N2, 10% CO2, and 10% H2.
# Antibacterial growth inhibition assays were performed using sterile 96-well plates in a final volume of 100 μl, TH or Veillonella medium as described previously (Qi et al. (2005) FEMS Microbial Lett. 251: 321-326). Briefly, bacterial cells were grown overnight to an optical density at 600 nm of 0.75 to 0.8 (corresponding to 1×10^8 CFU/ml) and then diluted to 1×10^5 CFU/ml in broth and aliquoted onto plates. An appropriate volume of peptide stock solution (5 to 20 mg/ml, in water or methanol, depending on solubility) was then added to the first column of the plate to give 500 μg/ml or 512 μg/ml, followed by serial 1:2 dilutions across the plate to give wells containing peptides ranging from 500 to 1.95 μg/ml or 512 to 2 μg/ml. Methanol alone was also added to control for the effects of the solvent. The plates were then incubated at 37° C. under anaerobic conditions for 16 to 20 h without shaking, and the MIC was determined as the concentration of peptide present in the last clear well after visual inspection. Up to 5% (vol/vol) methanol was found not to be antimicrobial (data not shown). MICs were determined in triplicate for all bacteria.
# [2] = system: P. aeruginosa; assay: MIC against P. aeruginosa; type: cell-based, Pseudomonas aeruginosa
# [3] = system: S. aureus
# [4] = system: E. faecalis
# [5] = system: L. casei
substance,measurement,setting,value
"AKRLLKVLKRF-NH2 [Peptide B-62, AKRLLKVLKRF*]",MIC,[1]; clinical isolates of,16 to 32 µg/mL
"AQAAHQAAHAAHQF-NH2 [α-4, AQAAHQAAHAAHQF*]","activity against S. mutans by MIC, in words",[1],inactive
same,MIC,[1]; clinical isolates of,>125 µg/mL
"AQAAKQAAKAAKQF-NH2 [α-8, AQAAKQAAKAAKQF*]","activity against S. mutans by MIC, in words",[1],inactive
same,MIC,"[1]; MIC range or value from all S. mutans isolates tested, binary, alpha-helix and RW libraries",>125 µg/mL
"ATHLLHALQRF-NH2 [Peptide B-46, ATHLLHALQRF*]",MIC,[1]; clinical isolates of,>250 µg/mL
"FHIKFRVHLKVRFHF [Peptide S3L8-6, FHIKFRVHLKVRFHF]",MIC P. aeruginosa,[2],>125 µg/mL
same,MIC S. aureus,[3],>125 µg/mL
same,MIC E. faecalis,[4],>125 µg/mL
same,MIC L. casei,[5],8 µg/mL
"FHVKIHFRLHVKFHF [Peptide S3L8-7, FHVKIHFRLHVKFHF]",MIC P. aeruginosa,[2],>125 µg/mL
same,MIC S. aureus,[3],>125 µg/mL
same,MIC E. faecalis,[4],>125 µg/mL
same,MIC L. casei,[5],16 µg/mL
"FHYFWHWFHRF-NH2 [Peptide B-49, FHYFWHWFHRF*]","activity against S. mutans by MIC, in words",[1],weakly active
same,MIC,[1]; clinical isolates of,125 µg/mL
"FKAHIRFKLRVKFHF [Peptide S3L8-10, FKAHIRFKLRVKFHF]",MIC P. aeruginosa,[2],>125 µg/mL
same,MIC S. aureus,[3],>125 µg/mL
same,MIC E. faecalis,[4],>125 µg/mL
same,MIC L. casei,[5],8 µg/mL
"FKKFWKWFRRFGGGRWRRLLKKLHHLLH-NH2 [FBα-12, FKKFWKWFRRF-GGG-RWRRLLKKLHHLLH*]",MIC (fusion library peptides),[1]; clinical isolates of,16 µg/mL
"FKTFLKWLHRF-NH2 [Peptide B-37, FKTFLKWLHRF*]","activity against S. mutans by MIC, in words",[1],active but to a lesser degree than B-33 or B-34
same,MIC,[1]; clinical isolates of,24 µg/mL
"FKTFLQWLHRF-NH2 [Peptide B-53, FKTFLQWLHRF*]","activity against S. mutans by MIC, in words",[1],active but to a lesser degree than B-33 or B-34
same,MIC,[1]; clinical isolates of,16 to 64 µg/mL
"FLHKHVLRHRIVF [Peptide S3L8-14, FLHKHVLRHRIVF]",MIC P. aeruginosa,[2],>125 µg/mL
same,MIC S. aureus,[3],>125 µg/mL
same,MIC E. faecalis,[4],>125 µg/mL
same,MIC L. casei,[5],>62.5 µg/mL
"IKQLLHFFQRFGGGRWRRLLKKLHHLLH-NH2 [FBα-13, IKQLLHFFQRF-GGG-RWRRLLKKLHHLLH*]",MIC (fusion library peptides),[1]; clinical isolates of,16 µg/mL
"IKTLLHFFQRF-NH2 [Peptide B-54, IKTLLHFFQRF*]","activity against S. mutans by MIC, in words",[1],active but to a lesser degree than B-33 or B-34
same,MIC,[1]; clinical isolates of,32 to 62.5 µg/mL
"IKVFAKQKY-NH2 [Peptide S6L1-7, IKVFAKQKY*]",MIC S. mutans,[1]; clinical isolates of,>500 µg/mL
same,MIC P. aeruginosa,[2],>500 µg/mL
same,MIC S. aureus,[3]; Killing Peptide Library #7,>500 µg/mL
"KFVKLILAY-NH2 [Peptide S6L1-5, KFVKLI LAY*]","activity against S. mutans by MIC, in words",[1],moderate activity
same,MIC S. mutans,[1]; clinical isolates of,32 µg/mL
same,MIC P. aeruginosa,[2],92 µg/mL
same,MIC S. aureus,[3]; Killing Peptide Library #7,>500 µg/mL
"KLAENVKEILR-OH [Peptide B-47, KLAENVKEILR]",MIC,[1]; clinical isolates of,>250 µg/mL
"KLAQKVKRVLR [Peptide B-63, KLAQKVKRVLR]",MIC,[1]; clinical isolates of,>125 µg/mL
"KLFKRWKHLFR-OH [Peptide B-35, KLFKRWKHLFR]",MIC,[1]; clinical isolates of,31.25 to 125 µg/mL
"KLKKLLKHLHHLLH-NH2 [α-12, KLKKLLKHLHHLLH*]",MIC,[1]; clinical isolates of,8 µg/mL
"KLKKLLKKLKKLLK [α-5, KLKKLLKKLKKLLK]",MIC,[1]; clinical isolates of,8 µg/mL
"KLKKLLKRWRRWWR-OH [α-10, KLKKLLKRWRRWWR]",MIC,[1]; clinical isolates of,8 µg/mL
"KLLQTFKQIFR-OH [Peptide B-39, KLLQTFKQIFR]",MIC,[1]; clinical isolates of,>250 µg/mL
"KLLQTFNQIFR-OH [Peptide B-55, KLLQTFNQIFR]",MIC,[1]; clinical isolates of,>125 µg/mL
"KLVEQLKEIFR-OH [Peptide B-43, KLVEQLKEIFR]",MIC,[1]; clinical isolates of,>250 µg/mL
"KLVKLVFLY-NH2 [Peptide S6L1-6, KLVKLVFLY*]",MIC S. mutans,[1]; clinical isolates of,125 µg/mL
same,MIC P. aeruginosa,[2],>500 µg/mL
same,MIC S. aureus,[3]; Killing Peptide Library #7,>500 µg/mL
"KLVQQLKNIFR-OH [Peptide B-59, KLVQQLKNIFR]",MIC,[1]; clinical isolates of,>125 µg/mL
"LHIHAHFHVHIHLHF [Peptide S3L8-8, LHIHAHFHVHIHLHF]",MIC P. aeruginosa,[2],>125 µg/mL
same,MIC S. aureus,[3],>125 µg/mL
same,MIC E. faecalis,[4],>125 µg/mL
same,MIC L. casei,[5],>62.5 µg/mL
"LKQFVHFIHRF-NH2 [Peptide B-41, LKQFVHFIHRF*]","activity against S. mutans by MIC, in words",[1],active but to a lesser degree than B-33 or B-34
same,MIC,[1]; clinical isolates of,32 µg/mL
"LKQFVKFIHRF-NH2 [Peptide B-57, LKQFVKFIHRF*]","activity against S. mutans by MIC, in words",[1],active but to a lesser degree than B-33 or B-34
same,MIC,[1]; clinical isolates of,24 µg/mL
"LKQKLKILF-NH2 [Peptide S6L1-2, LKQKLK1LF*]",MIC S. mutans,[1]; Killing Peptide Library #7,125 µg/mL
same,MIC P. aeruginosa,[2]; Killing Peptide Library #7,>500 µg/mL
same,MIC S. aureus,[3]; Killing Peptide Library #7,>500 µg/mL
"LKQLKAGIY-NH2 [Peptide S6L1-3, LKQLKAGIY*]",MIC S. mutans,[1]; clinical isolates of,>500 µg/mL
same,MIC P. aeruginosa,[2],250 µg/mL
same,MIC S. aureus,[3]; Killing Peptide Library #7,>500 µg/mL
"LQLLKQLLKLLKQF-NH2 [α-7, LQLLKQLLKLLKQF*]",MIC,[1]; clinical isolates of,8 µg/mL
"LYHFLHWFQRF-NH2 [Peptide B-50, LYHFLHWFQRF*]","activity against S. mutans by MIC, in words",[1],weakly active
same,MIC,[1]; clinical isolates of,125 µg/mL
"RALHEAKEALK-OH [Peptide B-48, RALHEAKEALK]",MIC,[1]; clinical isolates of,>250 µg/mL
"RALKRIKHVLK [Peptide B-64, RALKRIKHVLK]",MIC,[1]; clinical isolates of,>125 µg/mL
"RFRHFQERY-NH2 [Peptide S6L1-8, RFRHFQERY*]",MIC S. mutans,[1]; clinical isolates of,64 µg/mL
same,MIC P. aeruginosa,[2],>500 µg/mL
same,MIC S. aureus,[3]; Killing Peptide Library #7,125 µg/mL
"RILKELKNLFK-OH [Peptide B-40, RILKELKNLFK]",MIC,[1]; clinical isolates of,>250 µg/mL
"RLLKRFKHLFK-OH [Peptide B-36, RLLKRFKHLFK]",MIC,[1]; clinical isolates of,31.25 to 125 µg/mL
"RRRFWWR [Peptide 2C-1, RRRFWWR]",MIC,[1]; clinical isolates of,31.25 to 125 µg/mL
"RRRKWWK [Peptide 4C-1, RRRKWWK]",MIC,[1]; clinical isolates of,250 µg/mL
"RRRKWWK [Peptide 4C-3, RRRKWWK]",MIC,[1]; clinical isolates of,125 µg/mL
"RRRRWWK [Peptide 3C-1, RRRRWWK]",MIC,[1]; clinical isolates of,125 µg/mL
"RRRRWWW [Peptide 1C-1, RRRRWWW]",MIC,[1]; clinical isolates of,16 µg/mL
"RRRWWWK [Peptide 3C-3, RRRWWWK]",MIC,[1]; clinical isolates of,31.25 to 125 µg/mL
"RRRWWWR [Peptide 1C-3, RRRWWWR]",MIC,[1]; clinical isolates of,32 µg/mL
"RRWKRRK [Peptide 4C-2, RRWKRRK]",MIC,[1]; clinical isolates of,500 µg/mL
"RRWWRRF-NH2 [Peptide 2C-2, RRWWRRF*]",MIC,[1]; clinical isolates of,12 to 24 µg/mL
"RRWWRRK [Peptide 3C-2, RRWWRRK]",MIC,[1]; clinical isolates of,125 µg/mL
"RRWWRRW [Peptide 1C-2, RRWWRRW]",MIC,[1]; clinical isolates of,16 µg/mL
"RVLNQVKQILK [Peptide B-60, RVLNQVKQILK]",MIC,[1]; clinical isolates of,>125 µg/mL
"RVLQEIKQILK-OH [Peptide B-44, RVLQEIKQILK]",MIC,[1]; clinical isolates of,>250 µg/mL
"RWRKRWK [Peptide 4C-4, RWRKRWK]",MIC,[1]; clinical isolates of,125 to 500 µg/mL
"RWRRWWRHFHHFFH-NH2 [α-9, RWRRWWRHFHHFFH*]",MIC,[1]; clinical isolates of,8 µg/mL
"RWRWRWK [Peptide 3C-4, RWRWRWK]",MIC,[1]; clinical isolates of,32 µg/mL
"RWRWRWR [Peptide 1C-4, RWRWRWR]",MIC,[1]; clinical isolates of,32 µg/mL
"VFIVWVHKHVLF [Peptide S3L8-2, VFIVWVHKHVLF]",MIC P. aeruginosa,[2],>125 µg/mL
same,MIC S. aureus,[3],>125 µg/mL
same,MIC E. faecalis,[4],>125 µg/mL
same,MIC L. casei,[5],>62.5 µg/mL
"VFLHRHVIKHKLVF [Peptide S3L8-13, VFLHRHVIKHKLVF]",MIC P. aeruginosa,[2],>125 µg/mL
same,MIC S. aureus,[3],>125 µg/mL
same,MIC E. faecalis,[4],125 µg/mL
same,MIC L. casei,[5],>62.5 µg/mL
"VGKCVKLLY-NH2 [Peptide S6L1-4, VGKCVKLLY*]",MIC S. mutans,[1]; clinical isolates of,125 µg/mL
same,MIC P. aeruginosa,[2],250 µg/mL
same,MIC S. aureus,[3]; Killing Peptide Library #7,500 µg/mL
"VKKLAKLVRRF-NH2 [Peptide B-61, VKKLAKLVRRF*]",MIC,[1]; clinical isolates of,16 to 32 µg/mL
"VKNLAELVHRF-NH2 [Peptide B-45, VKNLAELVHRF*]",MIC,[1]; clinical isolates of,>250 µg/mL
"VKQLLKIFNRF-NH2 [Peptide B-58, VKQLLKIFNRF*]","activity against S. mutans by MIC, in words",[1],active but to a lesser degree than B-33 or B-34
same,MIC,[1]; clinical isolates of,32 to 62.5 µg/mL
"VKTLLHIFQRF-NH2 [Peptide B-42, VKTLLHIFQRF*]",MIC,[1]; clinical isolates of,31.25 to 125 µg/mL
"WRIHLRARLHVKFRF [Peptide S3L8-4, WRIHLRARLHVKFRF]",MIC P. aeruginosa,[2],>125 µg/mL
same,MIC S. aureus,[3],62.5 µg/mL
same,MIC E. faecalis,[4],8 µg/mL
same,MIC L. casei,[5],8 µg/mL
"YLFQTWQHLFR-OH [Peptide B-51, YLFQTWQHLFR]",MIC,[1]; clinical isolates of,>125 µg/mL
"YLLTEFQHLFK-OH [Peptide B-52, YLLTEFQHLFK]",MIC,[1]; clinical isolates of,>125 µg/mL
